# Assay results as given in patent publication US12540165B2, “HSP fusion protein with anti-chemorepellant agent for treatment of cancer” (The General Hospital Corporation, priority 2016, dated 2026).
# Like-named read-outs stand apart in the source and are kept apart here.
# Tests used:
# [1] = test system: AE17 mouse mesothelioma cell line; experiment: Ex vivo restimulation with recombinant mesothelin, intracellular IFN-γ in CD8+ T cells, AE17 mice; parameters: species or system C57BL/6 mice; conditions: compared to saline
# [2] = test system: AE17 mouse mesothelioma cell line; experiment: AE17 intraperitoneal malignant mesothelioma model: tumor weight and survival (Example 5); assay type: in vivo, C57BL/6 mice; conditions: compared to saline
# [3] = test system: AE17 mouse mesothelioma cell line; experiment: Immune profiling by flow cytometry of spleens, lymph nodes and tumors of AE17 tumor-bearing mice; assay type: in vivo, C57BL/6 mice
# [4] = test system: Luc-AE17 mesothelioma cancer cells; experiment: Luc-AE17 mesothelioma model, survival (Example 4); assay type: in vivo, C57BL/6 mice; conditions: compared to saline, VIC-008 20 μg, AMD3100 1 μg/g body weight, once a week for four weeks
# [5] = test system: 40L mouse mesothelioma cell line; experiment: Ex vivo restimulation with recombinant mesothelin, intracellular IFN-γ in CD8+ T cells, 40L mice; parameters: species or system C57BL/6 mice; conditions: splenic CD8+ T cells, compared to saline
# [6] = test system: Luc-40L mesothelioma cancer cells; experiment: Luc-40L mesothelioma model, survival (Example 4); assay type: in vivo, C57BL/6 mice; conditions: compared to saline, VIC-008 20 μg, AMD3100 1 μg/g body weight, once a week for four weeks
# Foxp3^+ Treg cells = conditions: AMD3100 5 μg/ml, 24 hours
# [7] = test system: 40L mouse mesothelioma cell line; experiment: 40L intraperitoneal malignant mesothelioma model: tumor weight and survival (Example 5); assay type: in vivo, C57BL/6 mice; conditions: compared to saline
# [8] = test system: 40L mouse mesothelioma cell line; experiment: Immune profiling by flow cytometry of spleens and tumors of 40L tumor-bearing mice; assay type: in vivo, C57BL/6 mice
# [9] = lymph nodes, AE17, compared to saline
# [10] = spleens, AE17, compared to saline
# [11] = tumors, AE17, compared to saline
# [12] = spleens, 40L, compared to saline
# [13] = tumors, 40L, compared to saline
compound,measurement,setting,value
"c1cc(CN2CCCNCCNCCCNCC2)ccc1CN1CCCNCCNCCCNCC1 [AMD3100, 1,1′-[1,4-phenylenebis(methylene)]bis[1,4,8,11-tetraazacyclotetradecane]]",mesothelin-specific IFN-γ expression in CD8+ T cells,[1]; lymph node CD8+ T cells,did not enhance
same,mesothelin-specific IFN-γ expression in CD8+ T cells,[1]; splenic CD8+ T cells,did not enhance
same,animal survival,[2],only modest benefit to survival
same,IL-2+ CD40L+ cells in the Foxp3+ CD25− Treg population,[3]; lymph nodes of AE17 mice,significantly more cells
same,cell ratio of CD8+ T cells to Treg cells,[3]; [9],significantly increased
same,proportion of CD8+ T cells in total live cells,[3]; [9],did not increase
same,proportion of PD-1-expressing CD8+ T cells,[3]; [9],significantly fewer
same,ratio of CD25− cells to CD25+ cells within the Foxp3+ population,"[3]; lymph nodes, AE17 model",significantly increased
same,Treg in the lymph nodes,"[3]; lymph nodes, AE17 tumor-bearing mice",generally reduced
same,proportion of CD8+ T cells in total live cells,[3]; [10],did not increase
same,proportion of PD-1-expressing CD8+ T cells,[3]; [10],significantly fewer
same,proportion of CD8+ T cells in total live cells,[3]; [11],did not increase
same,proportion of PD-1-expressing CD8+ T cells,[3]; [11],significantly fewer
same,proportions of Treg,[3]; [11],significantly decreased
same,ratio of CD8+ T cells to Treg,[3]; [11],increased
same,survival of tumor-bearing mice,[4],slight effect on survival
same,mesothelin-specific IFN-γ expression in CD8+ T cells,[5],did not enhance
same,survival of tumor-bearing mice,[6],slight effect on survival
same,ratio of the proportion of CD25− cells to CD25+ cells in the Foxp3+ CD4+ population,Foxp3^+ Treg cells; no anti-CD3/CD28 stimulation,did not change
same,conversion of Foxp3+ CD25− Treg into IL-2+ CD40L+ cells,Foxp3^+ Treg cells; with anti-CD3/CD28 stimulation,converted more
same,ratio of the proportion of CD25− cells to CD25+ cells in the Foxp3+ CD4+ population,Foxp3^+ Treg cells; with anti-CD3/CD28 stimulation,significantly increased
same,animal survival,[7],only modest benefit to survival
same,proportions of Treg cells,[8]; spleens of 40L tumor-bearing mice,did not alter
same,proportion of CD8+ T cells in total live cells,[8]; [12],did not increase
same,proportion of PD-1-expressing CD8+ T cells,[8]; [12],significantly fewer
same,IL-2+ CD40L+ cells in the Foxp3+ CD25− Treg population,[8]; tumors of 40L mice,significantly more cells
same,ratio of CD25− cells to CD25+ cells within the Foxp3+ population,[8]; tumors of 40L mice,significantly increased
same,proportion of CD8+ T cells in total live cells,[8]; [13],did not increase
same,proportion of PD-1-expressing CD8+ T cells,[8]; [13],significantly fewer
same,proportions of Treg,[8]; [13],significantly decreased
same,ratio of CD8+ T cells to Treg,[8]; [13],increased
